Measured values taken from patent publication US6579868B1, “Purine derivatives and adenosine A2 receptor antagonists serving as preventives/remedies for diabetes” (Eisai Co., Ltd., priority 1998, dated 2003).
pIC50: −log10 of the molar value. Where a name gives a salt, the structure may show the parent alone.

Experiments:
[1] = test system: Hepatic cells of primary culture of rats; experiment: Suppressing action to NECA-stimulated saccharogenesis (glucose release) in primary cultured rat hepatic cells; type: cell-based; settings: 0.1 μM NECA, 1 h incubation, glucose released into medium
Method: Hepatic cells were separated by a collagenase perfusion method from liver of male rats of Wistar strain and subjected to a primary culture in a William's Medium E containing 5% of calf serum, 10^−6 M of insulin, 10^−7 M of dexamethasone and 30 ng/ml of pertussal toxin. After one day, the hepatic cells were washed with a Krebs-Ringer Bicarbonate buffer (pH 7.4 (KRB)) containing 10 mM of HEPES and 0.1% of bovine serum albumin and incubated with KRB at 37° C. After 30 minutes, 0.1 μM of NECA (N-ethylcarboxamide adenosine) and a test compound were added thereto at the same time, the mixture was incubated for additional one hour and the amount of glucose released into an incubation medium was measured.

[2] = test system: spontaneous diabetic mice (KK-A^y/Ta Jcl); experiment: Action to hyperglycemia of spontaneous diabetic mice (KK-A^y/Ta Jcl), single oral administration; type: in vivo, mouse; settings: 5 h
Method: Animals: Five male KK-A^y/Ta Jcl mice for each group (purchased from Nippon Clair)
Preparation and Administration of Test Compound: A test compound in a dose as shown in Table 2 was suspended in a 0.5% aqueous solution of methyl cellulose and was orally administered in a dose of 10 ml/kg.
Collection of Blood Samples and Determination of Blood Sugar: Blood was collected from tail vein immediately before administration of the test compound and also five hours after the administration and blood sugar was determined.
(§1) Method: Tail vein of a mouse was injured by a razor without an anesthetization to bleed slightly. The blood (15 μl) was collected and immediately mixed with 135 μl of a 0.6 M perchloric acid. Glucose in the supernatant obtained by a centrifugal separation (at 1500 g for 10 minutes at 4° C. using a cooling centrifuge GS-6KR of Beckmann) was determined by a Glucose CII Test Wako (Wako Pure Chemicals).
The result is shown in terms of “(% ratio of the blood sugar after 5 hours from the administration to the blood sugar before the administration)±(standard error)”. The data were subjected to a one-way layout analysis of variance and then subjected to a multiple comparison of a Dunnett type. The case where p<0.05 was judged to be that a significant difference was available.
Animals: Five male KK-A^y/Ta Jcl mice for each group (introduced from Nippon Clair)
Preparation and Administration of Test Compound: A test compound in a dose shown in Table 6 was suspended in a 0.5% aqueous solution of methyl cellulose and was orally administered in a dose of 10 ml/kg.
as §1, with “vein of mouse was” for “vein of a mouse was”
The result is shown in terms of “(% ratio of the blood sugar after 5 hours from the administration to the blood sugar before the administration)±(standard error)”. The data were subjected to a one-way layout analysis of variance and then subjected to a multiple comparison of Dunnett type. The case where p<0.05 was judged that a significant difference was available.

Row | Compound | pIC50 [1] | melting point | further results
1 | CN(C)c1ccc(-n2c(-c3cccc(F)c3)nc3c(N)nc(C#CC4(O)CCCCC4)nc32)cc1 [Example 3, 1-{2-[6-Amino-9-[4-(dimetylamino)phenyl]-8-(3-fluorophenyl)-9H-2-purinyl]-1-ethynyl}-1-cyclohexanol Dihydrochloride] | 6.89 |  | 
2 | CCn1c(-c2cccc(F)c2)nc2c(N)nc(/C=C/C(C)(C)O)nc21.Cl [Example 210, (E)-4-[6-Amino-9-ethyl-8-(3-fluorophenyl)-9H-2-purinyl]-2-methyl-3-buten-2-ol Hydrochloride] | 6.28 |  | % ratio of the blood sugar after 5 hours from the administration to the blood sugar before the administration ± standard error ([2]; Table 2-3, 10 mg/kg oral, solvent group 70.7 ± 4.6): 51.5 ± 4.6%
3 | Cl.Cn1c(-c2cccc(F)c2)nc2c(N)nc(C#CC(C)(C)O)nc21 [Example 64, 4-[6-Amino-8-(3-fluorophenyl)-9-methyl-9H-2-purinyl]-2-methyl-3-butyn-2-ol Hydrochloride] |  |  | % ratio of the blood sugar after 5 hours from the administration to the blood sugar before the administration ± standard error ([2]; Table 2-2, 10 mg/kg oral, solvent group 67.6 ± 2.4): 42.3 ± 4.8%
4 | Cl.Cn1c(-c2cccc(F)c2)nc2c(N)nc(/C=C/C3(O)CCCC3)nc21 [Example 208, 1-[(E)-2-[6-Amino-8-(3-fluorophenyl)-9-methyl-9H-2-purinyl]-1-ethenyl]-1-cyclopentanol Hydrochloride] | 6.57 | > 290 °C | 
5 | Cn1c(-c2cccc(F)c2)nc2c(N)nc(C#CC(C)(C)O)nc21 [Example 64 (sulfate), Hydrochloride] | 6.14 |  | 
6 | CC(O)C#Cc1nc(N)c2nc(-c3ccco3)n(C)c2n1 (stereo not shown) [Example 23, 4-[6-Amino-8-(2-furyl)-9-methyl-9H-2-purinyl]-3-butyn-2-ol] |  | 155 to 158 °C | 
7 | CCCn1c(-c2cc(F)ccc2F)nc2c(N)nc(C#CC(O)(CC)CC)nc21.Cl |  | 164 to 165 °C | 
8 | Cn1c(-c2cc(F)cc(F)c2F)nc2c(N)nc(C#CC3(O)CCC3)nc21 [Example 126, 1-{2-[6-Amino-9-methyl-8-(2,3,5-trifluorophenyl)-9H-2-purinyl]-1-ethynyl}-1-cyclobutanol] |  | 231 to 234 °C | 
9 | Cn1c(-c2ccccc2F)nc2c(N)nc(C#CC(C)(C)O)nc21 [Example 156, 4-[6-Amino-8-(2-fluorophenyl)-9-methyl-9H-2-purinyl]-2-methyl-3-butyn-2-ol] |  | 198 to 199 °C | 
10 | CCC(O)(C#Cc1nc(N)c2nc(-c3ccc(C)o3)n(C)c2n1)CC.Cl |  | 229 to 230 °C | 
11 | Cl.Cn1c(-c2cc(F)ccc2F)nc2c(N)nc(C#CC(C)(C)O)nc21 |  | 177 to 178 °C | 
12 | CCC(O)(C#Cc1nc(N)c2nc(-c3cc(F)ccc3F)n(C)c2n1)CC.Cl |  | 147 to 148 °C | 
13 | CCCn1c(-c2cccc(F)c2F)nc2c(N)nc(C#CC(O)(CC)CC)nc21.Cl |  | 187 to 188 °C | 
14 | CCCCC#Cc1nc(N)c2nc(-c3ccco3)n(C)c2n1.Cl |  | 178 to 181 °C | 
15 | CCn1c(-c2cccc(F)c2)nc2c(N)nc(CCC(O)(CC)CC)nc21 [Example 235, 1-[6-Amino-9-ethyl-8-(3-fluorophenyl)-9-2-purinyl]-3-ethyl]-3-pentanol Hydrochloride] | 5.90 |  | 
16 | Cl.Cn1c(-c2cccc(F)c2)nc2c(N)nc(/C=C/C3(O)CCCCC3)nc21 |  | 222 to 225 °C | 

More lines, main results first:

Row | pIC50 [1] | melting point | Compound | further results
17 | 6.70 | 188 to 191 °C | CCn1c(-c2cccc(F)c2)nc2c(N)nc(C#CC3(O)CCCC3)nc21.Cl [Example 133, 1-{2-[6-Amino-9-ethyl-8-(3-fluorophenyl)-9H-2-purinyl]-1-ethynyl}-1-cyclopentanol Hydrochloride] | 
18 | 6.33 |  | Cn1c(-c2cccc(F)c2)nc2c(N)nc(C#CC3(O)CCCC3)nc21 [Example 19, 1-{2-[6-Amino-8-(3-fluorophenyl)-9-methyl-9H-2-purinyl]-1-ethynyl}-1-cyclopentanol Sulfate] | 
19 | 6.66 | 181 to 184 °C | Cl.Cn1c(-c2cccc(F)c2)nc2c(N)nc(/C=C/C3(O)CCC3)nc21 [Example 215, 1-[(E)-[6-Amino-8-(3-fluorophenyl)-9-methyl-9H-2-purinyl]-1-ethenyl]-1-cyclobutanol Hydrochloride] | 
20 | 6.30 | 144 to 146 °C | CCCn1c(-c2cccc(F)c2)nc2c(N)nc(C#CC3(O)CCC3)nc21.Cl [Example 170, 1-{2-[6-Amino-8-(3-fluorophenyl)-9-propyl-9H-2-purinyl]-1-ethynyl}-1-cyclobutanol Hydrochloride] | 
21 | 6.32 | 198 to 200 °C | CCCn1c(-c2cccc(F)c2)nc2c(N)nc(C#CC3(O)CCCC3)nc21.Cl [Example 169, 1-{2-[6-Amino-8-(3-fluorophenyl)-9-propyl-9H-2-purinyl]-1-ethynyl}-1-cyclopentanol Hydrochloride] | 
22 | 6.00 | 167 to 168 °C | CCCn1c(-c2cccc(F)c2)nc2c(N)nc(C#CC(C)(C)O)nc21.Cl [Example 171, 4-[6-Amino-8-(3-fluorophenyl)-9-propyl-9H-2-purinyl]-2-methyl-3-butyn-2-ol Hydrochloride] | 
23 | 6.37 | 198 to 199 °C | Cl.Cn1c(-c2cccc(F)c2)nc2c(N)nc(C#CC3(O)CCC3)nc21 [Example 89, 1-{2-[6-Amino-8-(3-fluorophenyl)-9-methyl-9H-2-purinyl]-1-ethynyl}-1-cyclobutanol Hydrochloride] | % ratio of the blood sugar after 5 hours from the administration to the blood sugar before the administration ± standard error ([2]; Table 2-2, 30 mg/kg oral, solvent group 67.6 ± 2.4): 38.3 ± 4.4%
24 |  | 124 to 127 °C | CCCn1c(-c2cccc(F)c2F)nc2c(N)nc(C#CC3(O)CCC3)nc21.Cl | 
25 |  | 167 to 170 °C | Cl.Nc1nc(C#CC2(O)CCC2)nc2c1nc(-c1cccc(F)c1)n2C1CC1 | 
26 | 6.31 | 160 to 163 °C | CCn1c(-c2cccc(F)c2)nc2c(N)nc(C#CC3(O)CCC3)nc21.Cl [Example 8, 1-{2-[6-Amino-9-ethyl-8-(3-fluorophenyl)-9H-2-purinyl]-1-ethynyl}-1-cyclobutanol Hydrochloride] | % ratio of the blood sugar after 5 hours from the administration to the blood sugar before the administration ± standard error ([2]; Table 2-1, 10 mg/kg oral, solvent group 72.4 ± 4.4): 47.8 ± 4.8%
27 |  | 141 to 143 °C | CCn1c(-c2cc(F)ccc2F)nc2c(N)nc(C#CC3(O)CCC3)nc21.Cl | 
28 |  | 138 to 140 °C | CCn1c(-c2cccc(F)c2F)nc2c(N)nc(C#CC3(O)CCCC3)nc21.Cl | 
29 | 6.89 |  | Cn1c(-c2cccc(F)c2)nc2c(N)nc(C#CC3(O)CCCCC3)nc21 [Example 31, 1-{2-[6-Amino-8-(3-fluorophenyl)-9-methyl-9H-2-purinyl]1-ethynyl}-1-cyclohexanol Hydrochloride] | 
30 |  | 232 to 234 °C | CCCn1c(-c2cc(F)ccc2F)nc2c(N)nc(C#CC3(O)CCCC3)nc21.Cl | 
31 |  | 210 to 211 °C | CCCn1c(-c2cc(F)cc(F)c2)nc2c(N)nc(C#CC3(O)CCCC3)nc21.Cl | 
32 |  | 149 to 152 °C | Cl.Cn1c(-c2cc(F)ccc2F)nc2c(N)nc(C#CC3(O)CCC3)nc21 | 
